Structures can show the parent of a compound that is named as a salt.
What follows are molecules tested on HIV-1 single-round infectious reporter virus (assay: Single-round infectious HIV-1 luciferase reporter virus infection of HeLa CD4 cells (antiviral EC50)). Details: Human immunodeficiency virus 1, HeLa, read-out: EC50 Group from Table 3.
Format: cell-based
Procedure, shortened: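 Compound (≤10 μM final, 10 concentrations) was added to HeLa CD4 cells together with luciferase-reporter HIV-1 pseudovirus (nef replaced by luciferase, envelope supplied in trans) at MOI ~0.01. Cells were lysed 72 h post-infection at 37 °C for luminescence; percent inhibition versus untreated infection, fitted four-parameter logistic for EC50.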

Row | SMILES | EC50
1 | COc1cnc(-c2cc(C(=O)NCCN(C)C)[nH]n2)c2[nH]cc(C(=O)C(=O)N3CCN(c4nnnn4-c4ccccc4)CC3)c12 [B-16, N-(2-(dimethylamino)ethyl)-3-(4-methoxy-3-(2-oxo-2-(4-(1-phenyl-1H-tetrazol-5-yl)piperazin-1-yl)acetyl)-1H-pyrrolo[2,3-c]pyridin-7-yl)-1H-pyrazole-5-carboxamide.TFA] | < 500 nM
2 | O=C(NCCO)c1cc(-c2ncc(F)c3c(C(=O)C(=O)N4CCN(c5c[nH]nc5-c5ccccc5)CC4)c[nH]c23)n[nH]1 [B-52] | < 500 nM
3 | COc1cnc(-n2cnc(C)n2)c2[nH]cc(C(=O)C(=O)N3CCN(c4nn[nH]c4-c4nccs4)CC3)c12 [G-25b] | < 500 nM
4 | COc1cnc(-c2ccn(C)n2)c2[nH]cc(C(=O)C(=O)N3CCN(c4nnnn4-c4ccccn4)CC3)c12 [B-73] | < 500 nM
5 | CCOC(=O)c1cccnc1N1CCN(C(=O)C(=O)c2c[nH]c3c(-n4cnc(C)n4)ncc(OC)c23)CC1 [D-8] | < 500 nM
6 | CN(C)CCNc1ccn(-c2ncc(F)c3c(C(=O)C(=O)N4CCN(c5nnnn5-c5ccccc5)CC4)c[nH]c23)n1 [B-23, 1-(7-(3-(2-(dimethylamino)ethylamino)-1H-pyrazol-1-yl)-4-fluoro-1H-pyrrolo[2,3-c]pyridin-3-yl)-2-(4-(1-phenyl-1H-tetrazol-5-yl)piperazin-1-yl)ethane-1,2-dione TFA] | < 500 nM
7 | O=C(NCCO)c1cc(-c2ncc(F)c3c(C(=O)C(=O)N4CCN(c5nnnn5-c5ccccc5)CC4)c[nH]c23)n[nH]1 [B-37] | < 500 nM
8 | O=C(C(=O)N1CCN(c2nnnn2-c2ccccc2)CC1)c1c[nH]c2c(-c3cc[nH]n3)ncc(F)c12 [B-28] | < 500 nM
9 | COc1cnc(-n2cnc(C)n2)c2[nH]cc(C(=O)C(=O)N3C[C@H](C)N(c4nnnn4-c4ccccc4)C[C@H]3C)c12 [A-32] | < 500 nM
10 | COc1cnc(-c2cc(C(=O)NCCCN(C)C)[nH]n2)c2[nH]cc(C(=O)C(=O)N3CCN(c4nnnn4-c4ccccc4)CC3)c12 [B-15, N-(3-(dimethylamino)propyl)-3-(4-methoxy-3-(2-oxo-2-(4-(1-phenyl-1H-tetrazol-5-yl)piperazin-1-yl)acetyl)-1H-pyrrolo[2,3-c]pyridin-7-yl)-1H-pyrazole-5-carboxamide.TFA] | < 500 nM
11 | N#Cc1cccc(CC(=O)c2cccnc2N2CCN(C(=O)C(=O)c3c[nH]c4c(-n5ccnn5)ncc(F)c34)CC2)c1 [D-48] | < 500 nM
12 | COc1ncc(OC)c2c(C(=O)C(=O)N3CCN(c4nnnn4-c4ccccc4)CC3)c[nH]c12 [A-12] | < 500 nM
13 | O=C(C(=O)N1CCN(c2nccc(-c3ccccc3)n2)CC1)c1c[nH]c2c(-n3ccnn3)ncc(F)c12 [A-7] | < 500 nM
14 | COc1cnc(-n2cnc(C)n2)c2[nH]cc(C(=O)C(=O)N3CCN(c4nn(C)nc4-c4ccccc4)CC3)c12 [G-23] | < 500 nM

Source: US7807676B2, “Diketo-Piperazine and Piperidine derivatives as antiviral agents” (priority 2006, dated 2010)
